The record followed here is PubChem BioAssay (NCI).

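Following 48 hours of exposure in 96-well plates, responses at five concentrations were used to interpolate endpoints linearly. At the TGI there is no net growth.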

Common to all, as to test: NCI-60 cell line screen, 48 h
For assay [1], the system named is KM20L2 colon.
In assay [2] the test system is HOP-18 NSCLC.
Assay [3] deals with M19-MEL melanoma.
The test system of assay [4] is XF 498 CNS.
Assay [5] has as its system DLD-1 colon.
In assay [6] the test system is DMS 114 small cell lung.
Assay [7] deals with LXFL 529 NSCLC.

As to `CC1(C)CC[C@]2(C(=O)O)CCC3(C)C(=CCC4[C@@]5(C)CC[C@H](OC6OCC(O)C(O)C6OC6OC(CO)C(O)C(O)C6O)C(C)(C)C5CC[C@]43C)C2C1` (stereo partly specified), the TGI is 3.7 µM in assay [1]; 3.48 µM in assay [2]; 3.46 µM in assay [3]; 4.59 µM in assay [4]; 22.7 µM in assay [5]; 3.62 µM in assay [6]. For the same compound, the TGI in assay [7] was determined as 3.39 µM.

As for `CCN1CCC(O)(c2ccccc2)C(C(=O)c2ccccc2)C1` (stereo unspecified), the TGI in assay [1] is greater than 60.7 µM; in assay [2] it was 28 µM; in assay [3], greater than 63.1 µM; in assay [4], 29.9 µM; in assay [5], 37 µM; in assay [6], greater than 67.4 µM. For the same compound, in assay [7], the TGI was 29.4 µM.

Consider `COc1ccc(Nc2nc3c(N)cc(C(F)(F)F)cc3nc2-c2ccccc2)cc1`, for which the TGI in assay [1], in assay [2], in assay [3], in assay [4], in assay [5] and in assay [6] was greater than 100 µM throughout. The same compound returned a TGI in assay [7] greater than 100 µM.

For `Clc1ccc(C2=NN(c3ccccc3)C3c4cc(Br)ccc4OCC23)cc1` (stereo unspecified), the TGI in assay [1], in assay [2], in assay [3], in assay [4], in assay [5] and in assay [6] was greater than 100 µM throughout. Further, the TGI in assay [7] is greater than 100 µM.

As to `O=c1[nH]cnc2c1nnn2C1C=C(CO)C(O)C1O` (stereo unspecified), the TGI in assay [1], in assay [2], in assay [3], in assay [4], in assay [5] and in assay [6] was greater than 100 µM each time. Further, in assay [7], the TGI is greater than 100 µM.

As to `COc1cc(C2c3cc4c(cc3[C@@H](OCCN)[C@H]3COC(=O)C23)OCO4)cc(OC)c1O` (stereo partly specified), the TGI in assay [1] is 2.79 µM; in assay [2] it was greater than 100 µM; in assay [3], 2.14 µM; in assay [4] it was 0.489 µM; in assay [5], 6.76 µM; in assay [6] it was 0.162 µM. This compound also displayed a TGI in assay [7] of 7.75 µM.

Turning to `Cc1ccc(C)c(NC(=O)CCC(=O)CC(=O)C(C)(C)C)c1`, the TGI in assay [1], in assay [2], in assay [3], in assay [4], in assay [5] and in assay [6] was greater than 100 µM each time. In assay [7], this compound displayed a TGI greater than 100 µM.

Consider `Nc1cc2c3c(cccc3c1)C(=O)N(CCN1CCN(CCN3C(=O)c4cccc5cc(N)cc(c45)C3=O)CC1)C2=O`, for which the TGI in assay [1], in assay [2], in assay [3], in assay [4], in assay [6] and in assay [7] was greater than 100 µM in each case.

For `COC1C2c3ccccc3C(C#N)(Cc3ccc4c(c32)OCO4)N1C(=O)c1ccccc1` (stereo unspecified), the TGI in assay [1] was greater than 100 µM; in assay [2], greater than 100 µM; in assay [4], 98.1 µM; in assay [5], greater than 100 µM; in assay [6], greater than 100 µM; in assay [7], greater than 100 µM.

Consider `CCN1N=CSC12C(=O)N(c1ccccc1)C(=O)N2c1ccccc1` (stereo unspecified), for which the TGI in assay [1], in assay [2], in assay [4], in assay [5], in assay [6] and in assay [7] was greater than 100 µM throughout.

For the compound `C=C1C(=O)C23C(O)C1CCC2C12CO[C@]3(O)[C@@H](O)C1C(C)(C)CCC2O` (stereo partly specified), the TGI in assay [1] came out at 30.5 µM; in assay [2], 25.5 µM; in assay [3], 23.7 µM; in assay [4], 5.24 µM; in assay [5], 33.8 µM; in assay [6] it was 20.7 µM. This compound also came in with a TGI in assay [7] of 6.03 µM.

In the case of `O=C1/C(=C/c2ccccc2Cl)COc2ccccc21`, the TGI was determined as 38.1 µM in assay [1]; 24 µM in assay [2]; 34.2 µM in assay [3]; 29.2 µM in assay [4]; 29.4 µM in assay [5]; 36.2 µM in assay [6]. This compound returned a TGI in assay [7] of 31.6 µM.
